Measured values from patent publication US12414983B2, “CD200AR ligands for cancer immunotherapy” (REGENTS OF THE UNIVERSITY OF MINNESOTA, priority 2019, dated 2025).

B1: CD200: CD200 immune checkpoint protein used to pulse splenocytes (protein, UniProt O54901 31-278, looked up)
OX-2 membrane glycoprotein: QVEVVTQDERKALHTTASLRCSLKTSQEPLIVTWQKKKAVSPENMVTYSKTHGVVIQPAYKDRINVTELGLWNSSITFWNTTLEDEGCYMCLFNTFGSQKVSGTACLTLYVQPIVHLHYNYFEDHLNITCSATARPAPAISWKGTGTGIENSTESHFHSNGTTSVTSILRVKDPKTQVGKEVICQVLYLGNVIDYKQSLDKGFWFSVPLLLSIVSLVILLVLISILLYWKRHRNQERGESSQGMQRMK

Columns and labels:
[1] = tested on: Human CD14+ cells; test: Cytokine measurements in CD14+ cells pulsed with CD200AR-L peptide; type: cell-based; settings: for secretion of inflammatory cytokines from CD14+ cells: selection among 61 alanine-substituted peptides; for IL-1β in supernatant / TNFα in supernatant: CD14+ cells pulsed with peptide, 48 h, compared with non-pulsed controls
Description: Cytokine measurements. Human CD14^+ cells (5×10^5) were isolated from peripheral blood mononuclear cells (PBMCs) using anti-CD14 beads (BD Biosciences, San Jose, CA), typically yielding ≥70% recovery and ≥90% purity. Cells were pulsed with 2 μM CD200AR-L peptide and incubated for 48 h, after which the supernatants were analyzed by bead array for cytokine production (BD Biosciences, San Jose, CA).

[2] = tested on: CD14+ cells; test: Dendritic cell maturation: phenotyping for CD80, CD86, HLA-DR; type: cell-based, human; settings: peptide alone compared with GM-CSF+IL4, p<0.0001
Description: FIGS. 4A-4D. Targeting CD200 activation receptors enhances dendritic cell maturation. (FIGS. 4A, 4B) CD14 purified cells were pulsed with (FIG. 4A) GM-CSF+IL4 or equal molar ratios of peptides P1A8, P2A0, or P4A10 or (FIG. 4B) GM-CSF+IL4 plus equal molar ratios of peptides P1A8, P2A0, or P4A10 and incubated for 48 h. Cells were harvested and phenotyped for CD80, CD86, and HLA-DR. (FIG. 4C) Immature dendritic cells from donors with or without CMV were pulsed with the CMV antigen pp65+/−equal molar ratios of peptides P1A8, P2A0, or P4A10. Cells were washed, and autologous T-cells were added back and incubated for a further 48 h. Supernatants were analyzed for IFNγ production. (FIG. 4D) Immature dendritic cells were pulsed with the CMV antigen pp65+/−P4A10. After the cells were washed, autologous T-cells were added back and incubated for a further 48 h. Supernatants were analyzed for IFNγ, IL-6, TNFα and RANTES content. Error bars represent standard deviation (n=3 healthy donors/group, *P<0.05, **P<0.005, ***P<0.0005 by t-test). The data represent three separate healthy donors. Black bars represent CMV-negative donors.
Targeting CD200 activation receptors enhances dendritic cell maturation. TNF-regulated cytokines (Table 1) have been implicated in dendritic cell maturation. […] To substantiate this, CD14^+ cells were isolated from healthy human donors and pulsed with GM-CSF+IL4, P1A8, P2A0, or P4A10 27. Cells pulsed with P1A8, P2A0, and P4A10 expressed higher levels of the co-stimulatory molecules CD80, CD86, and HLA-DR than cells treated with GM-CSF+IL4 (p<0.0001; FIG. 4a). Moreover, we observed synergistic upregulation of CD80/86 and HLA-DR when CD14^+ cells were incubated with GM-CSF+IL4 and each of the peptides (p<0.0001) (FIG. 4b).

[3] = tested on: CD14+ cells; test: RNAseq / NanoString gene expression analysis of pulsed CD14+ cells; type: cell-based, human; settings: for mRNA expression of TNF-regulated cytokines: NanoString platform, FIG. 3b; for mRNA expression of cytokines released in response to TNF signaling: RNAseq, CD14+ cells
Source text: Nanostring gene expression analysis: Total RNA from CD14^+ cells was sent to New Zealand Genomics Limited (Dunedin, New Zealand) to measure the expression of genes that are differentially expressed during inflammation (nCounter GX, NanoString Technologies, Seattle, WA, USA). Briefly, total RNA was extracted from CD14^+ cells (MagJET RNA kit, Thermo Fisher Scientific, Waltham, MA) using the protocol adapted for tissue (KingFisher Duo machine, Thermo Fisher Scientific, Waltham, MA). RNA samples were then quantified (Qubit® 2.0 fluorometer, Thermo Fisher Scientific) and subjected to RNA integrity analysis (2100 Bioanalyzer, Agilent Technologies, Santa Clara, CA). Probes for the genes encoding CD44 (NM_001001392.1); NANOG (NM_024865.2); OCT4 (NM_002701.4); STAT3 (NM_139276.2); and the housekeeping genes glucuronidase beta (NM_000181.1), clathrin heavy chain (NM 4859.2), and hypoxanthine phosphoribosyltransferase 1 (NM_000194.1) were designed and manufactured by NanoString Technologies.
Expression data obtained with NanoString GX were analyzed by using nSolver Analysis Software 3.0 (nanostring.com/products/nSolver) with default settings, and normalized to housekeeping genes. nSolver was used to perform cluster analysis and to generate heat maps by using Java Treeview Version 1.1.6r4. Pathway analysis was performed by using the PathCards Pathway Unification Database (pathcards.genecards.org). Student's t-tests were used to determine significant differences (p<0.05).

[4] = tested on: T-lymphocytes; test: P4A10 priming prior to antigen presentation, CD200R1 expression; type: cell-based; settings: not observed in mock-treated cells, FIG. 7d
Source text: The efficacy of the P4A10+autologous tumor lysate strategy in this context creates an interesting conundrum. The T-cells that respond to APC presentation following stimulation express the inhibitory CD200R129. The immune-stimulatory effects of these primed T-cells, therefore, are expected to be blunted upon entry into a glioblastoma microenvironment that is replete with soluble and tumor-expressed CD200. […] Such suppression was not observed in mock-treated cells. Similar downregulation of PD-1 was observed on APCs (p=0.005, FIG. 7c).

[5] = tested on: immature dendritic cells (iDCs) and autologous T-cells; test: CMV assay: iDCs pulsed with pp65 +/- peptide, then co-incubated with T-cells; type: cell-based, human; settings: for antigen-specific response, production of IFNγ: pp65+CD200AR-L peptide compared with pp65 alone
Description: Dendritic cell differentiation. Cytomegalovirus (CMV)-positive HLA-A2^+ lymphocyte packs were obtained from the American Red Cross, and CD14^+ cells were purified. Approximately 1×10^8 CD14^+ cells were cultured in polystyrene tissue-culture flasks at 37° C. in 5% CO2. GM-CSF (25 ng/mL) and IL-4 (40 ng/mL) were both added on days 3 and 5 to derive immature dendritic cells (iDCs).
CMV assay. iDCs (5×10^5) were pulsed with 10 μg of CMV antigen peptide pp65495-503 (NLVPMVATV) and cultured as described above. The iDCs were then washed three times, and 5×10^5 CD8^+ T-cells from CMV-positive donors were co-incubated with the pulsed iDCs. CMV-negative PBMCs were used as a negative control. Supernatants were collected after 48 h of incubation and analyzed for IFNγ production by cytometric bead array (BD Biosciences).
To assess the effects of P1A8, P2A0, and P4A10 on the antigen-specific response, we measured IFNγ release in the following assay. iDCs were pulsed with the CMV antigen pp65 with and without an equimolar amount of P1A8, P2A0, or P4A10. Autologous T-cells were then added and incubated with the iDCs for 48 h, after which IFNγ production was measured in the supernatants. Exposure to pp65 increased T-cell IFNγ production approximately 4-fold (FIG. 4c). Co-treatment of iDCs with pp65 and P1A8, P2A0, or P4A10 increased IFNγ release by an additional 2- to 3-fold over pp65 alone.

[6] = tested on: Splenocytes; test: Splenocytes pulsed with CD200 or PD-L1 +/- mCD200AR-L, flow cytometry for CTLA4 and PD-L1; type: cell-based; settings: splenocytes pulsed with CD200 or PD-L1
Description: FIGS. 14A-14C. […] Splenocytes were pulsed with CD200, PD-L1+/−mCD200AR-L. Cells were analyzed by flow cytometry for the (FIG. 14A) CD4^+CTLA4^+, (FIG. 14B) CD8^+CTLA4^+or (FIG. 14C) CD11b^+PD-L1^+ populations. Error bars are representative of n=2 *P<0.005, **P<0.0001.
We propose that soluble CD200 and PD-L1 inhibit T cell activation through multiple checkpoints (FIG. 10). Therefore, the effect of multiple suppressive molecules (CD200 and PD-L1) on T cell inhibition was investigated. […] In addition, following PD-L1 treatment, an upregulation of PD-L1 on CD11b and an upregulation of CTLA4 was observed on T cells. Being CTLA4 and PD-L1 propagate separate inhibitory signals, it was hypothesized that PD-L1 inhibits T cell activation through 1) direct CD200 and PD-L1 on T cells and 2) direct PD-L1 (on APCs)/PD-I (on […]) producing cytokines upregulating CTLA4, which would explain the enhanced responses seen in combination α-PD-1 and α-CTLA4 treatments. However, neither of them inhibit CD200 effect on T cells.
We next looked at the effects of CD200AR-L on T cell inhibition. […] Being CTLA4 and PD-L1 propagate separate inhibitory signals, we hypothesize that PD-L1 inhibits T cell activation through two separate mechanisms, 1) through direct PD-L1 (on APCs)/PD-I (on T cells) interactions and through cytokine production following PD-L1 binding to the PD-1 on CD11b cell, which would explain the enhanced responses seen in combination α-PD-1 and α-CTLA4 treatments.

| Molecule | secretion of inflammatory cytokines from CD14+ cells [1] | antigen-specific response, production of IFNγ [5] | IL-1β in supernatant [1] | TNFα in supernatant [1] | other results |
| --- | --- | --- | --- | --- | --- |
| CLFNTFGFGAISGTA (Ac-CLFNTFGFGAISGTA-NH2; listed as Homo sapiens) [P4A10] | maximally stimulated | – | – | – | levels of co-stimulatory molecules CD80, CD86, and HLA-DR [2]: higher levels; mRNA expression of TNF-regulated cytokines [3]: most potently and consistently induced; mRNA expression of cytokines released in response to TNF signaling [3]: notable increase; CD200R1 expression [4]: suppressed |
| CLFNTFGFGKISGTA (Ac-CLFNTFGFGKISGTA-NH2; listed as Homo sapiens) [P4] | – | significant antigen-specific response | statistically significant increases | statistically significant increases | – |
| IVTWQKKKAVSPENM (Ac-IVTWQKKKAVSPENM-NH2; listed as Homo sapiens) [P1] | – | significant antigen-specific response | statistically significant increases | statistically significant increases | – |
| NITLADEGCYMCLFN (Ac-NITLADEGCYMCLFN-NH2; cysteine pairing not given here; listed as Homo sapiens) [P2A5] | maximally stimulated | – | – | – | – |
| NITLEDEGCYMCLFN (Ac-NITLEDEGCYMCLFN-NH2; cysteine pairing not given here; listed as Homo sapiens) [P2A0] | maximally stimulated | – | – | – | levels of co-stimulatory molecules CD80, CD86, and HLA-DR [2]: higher levels; mRNA expression of TNF-regulated cytokines [3]: most potently and consistently induced; mRNA expression of cytokines released in response to TNF signaling [3]: notable increase |
| NITLEDEGCYMCLFN (Ac-NITLEDEGCYMCLFN-NH2; cysteine pairing not given here; listed as Homo sapiens) [P2] | – | significant antigen-specific response | statistically significant increases | statistically significant increases | – |
| NLVPMVATV [pp65, CMV antigen peptide pp65495-503, reference compound] | – | – | – | – | increase of T-cell IFNγ production ([5]; exposure to pp65 alone, FIG. 4c): approximately 4 fold |
| VTFSENHGVVIAPAY (Ac-VTFSENHGVVIAPAY-NH2; listed as Homo sapiens) [P3A12] | maximally stimulated | – | – | – | – |
| VTFSENHGVVIQPAY (Ac-VTFSENHGVVIQPAY-NH2; listed as Homo sapiens) [P3] | – | significant antigen-specific response | statistically significant increases | statistically significant increases | – |
| B1 | – | – | – | – | CTLA4 on CD4 cells [6]: upregulation; CTLA4 on CD8 cells [6]: not on CD8 cells |
